Experimental data as given in patent US8563558B2, “Substituted pyridine urea compounds” (Confluence Life Sciences, Inc., priority 2010, dated 2013).
Where “and” joins values, the source holds several entries; their conditions need not be identical. Equal entries are not always repeated.

What was measured:
p38α/PRAK = p38α/PRAK (Homo sapiens, UniProt Q16539); experiment: p38α/PRAK cascade assay (phosphorylation of Hsp27 peptide, Caliper LabChip 3000); format: biochemical; conditions: Hsp27 peptide 1 μM, MgATP 10 μM, 30 minutes, room temperature, two values given, read-out: p38/PRAK IC50
Procedure: (§1) P38 inhibitory potency and P38/MK2 substrate selectivity: The novel, MK2 substrate-selective inhibitory mechanism of compounds is evaluated in enzyme assays comparing inhibitor potency in blocking p38/MK2 versus p38/PRAK induced phosphorylation of an HSP-27 derived peptide substrate. The ability of compounds to inhibit activated phospho-p38α is evaluated using a p38α/MK2 and a p38α/PRAK cascade assay format. The kinase activity of p38α is determined by its ability to phosphorylate GST-MK2 or GST-PRAK. Activation of MK2 or PRAK by p38α is quantitated by measuring the phosphorylation of a fluorescently-labeled, MK2 specific peptide substrate, Hsp27 peptide (FITC-KKKALSRQLSVAA). The phosphorylation of the Hsp27 peptide is quantified using the Caliper LabChip 3000. Kinase reactions are carried out in a 384-well plate (Matrical, MP101-1-PP) in 20 mM HEPES pH 7.5, 10 mM MgCl2, 0.0005% Tween-20, 0.01% BSA, 1 mM DTT, and 2% DMSO. The inhibitor concentration is varied between 0.02-30,000 nM, while the Hsp27 peptide substrate and MgATP are held constant at 1 μM and 10 μM, respectively. Activated p38α is added to a final concentration of […] for reactions with nonphosphorylated 1 nM His6-MK2 in the cascade reaction. For the p38α/PRAK cascade, unactivated GST-PRAK is held constant at 1 nM while p38α is added in to a final concentration of […]. Kinase reactions are incubated at room temperature and quenched after 30 minutes by the addition of stop buffer (180 mM HEPES, 30 mM EDTA, and 0.2% Coating Reagent-3). Under these conditions, approximately 20% of the substrate Hsp27 peptide is phosphorylated. Reactions are initiated by the addition of activated p38α except for preincubation experiments, where reactions are initiated by the addition of Hsp27 peptide and MgATP. Preincubation of p38α with inhibitor or p38α with unactivated His6-MK2 or unactivated GST-PRAK and inhibitor are performed at 2× final assay concentrations at room temperature 240 minutes prior to adding ATP and Hsp27 peptide to initiate catalysis. The p38α compound inhibitory potency is quantitated from dose-response IC50 values or Ki values from p38α/MK2 cascade assays while the substrate selectivity is calculated as a ratio of p38α/PRAK:p38α/MK2 IC50 values. Species compounds of Formula I, described hereinabove, evaluated in this assay, are expected to provide a therapeutic benefit in the treatment of p38 kinase mediated diseases, such as autoimmune diseases and lymphoma.

p38α/MK2 = p38α/MK2 (Homo sapiens, UniProt Q16539); experiment: p38α/MK2 cascade assay (phosphorylation of Hsp27 peptide, Caliper LabChip 3000); format: biochemical; conditions: Hsp27 peptide 1 μM, MgATP 10 μM, 30 minutes, room temperature, two values given, read-out: p38/MK2 IC50
Procedure: as §1

p38α/PRAK, sequence (Q16539 whole entry): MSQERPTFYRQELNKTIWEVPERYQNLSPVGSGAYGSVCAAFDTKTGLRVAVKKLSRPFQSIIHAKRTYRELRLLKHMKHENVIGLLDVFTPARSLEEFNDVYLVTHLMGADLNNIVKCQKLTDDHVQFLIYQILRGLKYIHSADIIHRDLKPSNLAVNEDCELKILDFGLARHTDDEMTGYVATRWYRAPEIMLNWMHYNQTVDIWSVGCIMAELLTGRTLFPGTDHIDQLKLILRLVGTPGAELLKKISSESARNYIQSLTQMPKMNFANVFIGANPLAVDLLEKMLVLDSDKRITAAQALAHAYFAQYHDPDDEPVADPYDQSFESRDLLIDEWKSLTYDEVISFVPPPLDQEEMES
p38α/MK2, sequence (Q16539 whole entry): as above
p38α/MK2, sequence (P49137 whole entry partner): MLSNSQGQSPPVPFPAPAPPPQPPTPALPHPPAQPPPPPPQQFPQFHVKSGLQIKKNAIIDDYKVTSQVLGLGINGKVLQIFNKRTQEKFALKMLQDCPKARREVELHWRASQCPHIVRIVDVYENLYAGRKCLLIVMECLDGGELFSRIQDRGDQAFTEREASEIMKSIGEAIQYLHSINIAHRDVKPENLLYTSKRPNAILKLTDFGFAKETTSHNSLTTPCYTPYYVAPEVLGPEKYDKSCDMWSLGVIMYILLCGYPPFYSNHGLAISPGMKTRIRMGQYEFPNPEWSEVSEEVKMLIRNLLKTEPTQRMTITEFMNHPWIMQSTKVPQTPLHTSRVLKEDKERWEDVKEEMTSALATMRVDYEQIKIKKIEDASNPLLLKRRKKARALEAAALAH

SMILES	IC50 (p38α/PRAK)	IC50 (p38α/MK2)
Cc1ccc(-c2ccnc(C(C)(C)O)n2)cc1N(C(N)=O)c1cccc(-c2ccc(F)cc2F)n1 [Example 5, 1-(6-(2,4-difluorophenyl)pyridin-2-yl)-1-(5-(2-(2-hydroxypropan-2-yl)pyrimidin-4-yl)-2-methylphenyl)urea]	1.9 µM and 2.6 µM	0.34 µM and 0.36 µM
Cc1ccc(-c2ccnc(C(C)(C)C)n2)cc1N(C(N)=O)c1ccc(C(N)=O)c(-c2ccc(F)cc2F)n1 [Example 17, 6-(1-(5-(2-(tert-butyl)pyrimidin-4-yl)-2-methylphenyl)ureido)-2-(2,4-difluorophenyl)nicotinamide]	> 10 µM	0.55 µM and 0.5 µM
Cc1ccc(-c2ccnc(C(C)(C)C)n2)cc1N(C(N)=O)c1cccc(-c2ccc(F)cc2F)n1 [Example 31, 1-(5-(2-(tert-butyl)pyrimidin-4-yl)-2-methylphenyl)-1-(6-(2,4-difluorophenyl)pyridin-2-yl)urea]	> 50 µM	1.27 µM and 1.53 µM

Next, values leading:

IC50 (p38α/PRAK)	IC50 (p38α/MK2)	SMILES
> 10 µM	0.838 µM and 0.955 µM	COC(=O)c1ccc(N(C(N)=O)c2cc(-c3ccnc(C(C)(C)C)n3)ccc2C)nc1-c1ccc(F)cc1F [Example 32, methyl 6-(1-(5-(2-(tert-butyl)pyrimidin-4-yl)-2-methylphenyl)ureido)-2-(2,4-difluorophenyl)nicotinate]
> 50 µM	9.5 µM and 12 µM	Cc1nc(-c2cccc(N(C(N)=O)c3cc(-c4ccnc(C(C)(C)C)n4)ccc3C)n2)cs1 [Example 33, 1-(5-(2-(tert-butyl)pyrimidin-4-yl)-2-methylphenyl)-1-(6-(2-methylthiazol-4-yl)pyridin-2-yl)urea]
